The structures appear in SMILES notation.

The test system of data set [1] is HepaRG cells. Briefly: Hepatotoxicity evaluation by dead cell staining (EthD-1) in the microfabricated platform for mimicking the liver zonation. Format: cell-based. The note with it: 10 mM acetaminophen, 48 hours. The method, then: First, an impermeable fluorescent substance was formed in the inside of HepaRG cells by using cell tracker deep red fluorescent solution in order to trace the location of HepaRG cells. A microfabricated platform for mimicking the liver zonation was prepared by the same conditions and same manners as described in Example 1 by using the prepared HepaRG cells. […] As a control, a culture medium without acetaminophen was used. Upon completion of the culture, the medium was removed and the dead cells were stained with EthD-1 (ethidium homodimer-1).

Data set [2] deals with HepaRG cells. In words: Hepatotoxicity evaluation by cell viability (cell counting kit-8) of pieces of the microfabricated platform for mimicking the liver zonation. The class given is cell-based. The following applies: 48 hours; acetaminophen 12.5-200 mM, tamoxifen 31.2-500 μM; pieces along CHIR gradient. The method, then: The 96-well plate was cultured at 37° C. for 48 hours. Upon completion of the reaction, cells were washed with PBS and the absorbance of the cells was measured using cell counting kit-8 (Dojindo Molecular Technologies) according to the manufacturer's protocol.
(Tetrazolium dyes change colour on reduction, which living cells bring about.)

Another data set deals with liver tissue. Briefly: Hepatotoxicity in liver tissue of a rat model (H&E staining). The class given is in vivo, Sprague Dawley rats. The following applies: oral, once a day for 3 days; acetaminophen 1,000 mg/kg, tamoxifen 60 mg/kg.

Source text for liver tissue: After the administration, the animals were sacrificed, from which the liver tissues were obtained. The obtained liver tissues were stained with H&E, followed by observation under a microscope.

Turning to `CC(=O)Nc1ccc(O)cc1` [acetaminophen], the “EthD-1 staining of dead cells (fluorescence intensity) by zone” value with HepaRG cells [1] was “high fluorescence intensity in those hepatocytes exposed to a relatively high concentration of CHIR”. For the same compound, the “zone-specific sensitivity of cell viability to drug induced toxicity” value in the data set on HepaRG cells [2] is “more sensitive to the acetaminophen induced toxicity”. Also, the “liver histopathology by zone (H&E)” value in the data set on liver tissue was “increased mitosis (yellow triangle), necrosis (blue triangle) and inflammatory cell infiltration (green triangle) in the central vein of the liver (zone 3)”.

(Values after patent US10683483B2, “Microfabricated platform for mimicking the liver zonation and evaluating method of zonal toxicity using thereof” (Korea Research Institute of Chemical Technology, priority 2019, dated 2020).)
